Data on one sequence can be found in patent publication US7259140B2, “Heparin-binding peptides and uses thereof” (Thomas Jefferson University, priority 2003, dated 2007).

Ends that are not written are not given here.

Data set [1] can be described thus: Hemodynamic effects in rats after administration of the LMWH Lovenox. To be noted: in the presence of LMWH Lovenox.
Procedure: Next, experiments were performed in which the animals were treated with the peptides after the administration of the LMWH Lovenox®, as would happen in the clinical situation, because binding of peptides to LMWH would be expected to reduce the effects of the peptides on hemodynamic function.
The nature of data set [2]: Hemodynamic effects in rats without prior Lovenox.
Procedure: Rats were sedated, and catheters were inserted into the femoral vein and femoral artery. The femoral artery catheter was hooked up to the computerized monitoring system, and injections were made through the femoral vein. Peptides were injected into rats without prior injection of Lovenox. Two or more rats (300-350 grams) were treated with 2 mg protamine or peptide.
At the times indicated in the figures, the following actions were taken: administration of saline to insure that the animal and intubations were stable; administration of test peptide or protamine alone; then administration of protamine.
The test system of the next data set is platelets. Description: Platelet aggregation with aggregation-inducing agents. Type of data set: cell-based, human. To be noted: 12 μg/ml; Lovenox 0.5 U/ml; collagen, ADP, ristocetin, epinephrine, SFFLRN, A23187. On the procedure:
Plasma from six volunteers was tested with various aggregation inducing agents, at several concentrations of each agent, and with six different peptides of the invention. The effect of heparin-binding peptides of the invention on platelet aggregation was determined using standard procedures as previously described. The six peptides which were synthesized and tested were: (ARKKAAKA)4 (SEQ ID NO:31), ARKKAAKA(A16)ARKKAAKA (SEQ ID NO:30), (ARKKAAKA)3ARKKCAKA (SEQ ID NO:33), (ARKKAAKA)3VLVLVLVL (SEQ ID NO:5), C(ARKKAAKA)4C (SEQ ID NO:34), and (AKKARA)6 (SEQ ID NO:32).
The aggregation-inducing agents tested were: collagen, adenosine diphosphate (ADP), ristocetin, epinephrine, the thrombin receptor peptide SFFLRN, and calcium ionophore A23187. Platelets were subjected to protamine, or to SEQ ID NOS:31, 33, 30, 5, 34, or 32 at 12 μg/ml, and Lovenox® at 0.5 U/ml. Platelet aggregation in response to agonists was monitored and percent aggregation was determined over a five minute interval.
The agonist was added after equilibration of the platelets for one minute.

The nature of data set [3]: Affinity coelectrophoresis (ACE) of peptide binding to radiolabeled low Mr heparin. Details: species or system pig. To be noted: pH 7.0, mean and standard deviation of four assays, read-out: Kd (nM), affinity for low molecular weight heparin. The text has this:
Preparation of Radiolabeled Heparin. Whole heparin from pig intestinal mucosa (Sigma) was tyramine end-labeled and radiolabeled with Na^125I (Amersham, Pharmacia Biotech, Inc., Piscataway, N.J.) to an average specific activity≅1.0×10^7 CPM/μg as described (San Antonio, J. D., et al., Biochemistry, 32:4746-4755, 1993). Radiolabeled heparin was fractionated on Sephadex G-100 (Bio-Rad Laboratories, Hercules, Calif.) and the final≅12% of material to elute was retained as the low Mr material of ≦6,000 (Jordan, R., D. Beeler, and R. Rosenberg, J. Biol. Chem., 254:2902-2913, 1979; Laurent, T. C., et al., Biochem. J., 175:691-701, 1978).
Analysis of Peptide-Heparin Interactions by Affinity Coelectrophoresis (ACE). ACE was used to study interactions between peptides and low molecular weight (low Mr) heparin (WO00/45831). In ACE, trace concentrations of radiolabeled heparin are electrophoresed through agarose lanes containing peptides at various concentrations. These analyses are used to determine the dissociation constants (Kd's). The electrophoretic patterns of radiolabeled heparin are then visualized using a phosphorimager, and the dissociation constant (Kd) corresponds to the protein concentration at which the heparin is half shifted from being fully mobile at very low protein concentrations to maximally retarded at saturating protein concentrations. The lower the Kd value, the higher the affinity.
Binding of radiolabeled heparin to peptides was studied by ACE as detailed elsewhere (San Antonio, J. D., et al., Biochemistry, 32:4746-4755, 1993). […] Briefly, peptides were dissolved in 1×ACE running buffer, 50 mM sodium 3-(N-morpholino)-2-hydroxypropanesulfonate (MOPSO, Sigma)/125 mM sodium acetate, pH 7.0, and serially diluted in running buffer at 2× concentrations. Peptides were then mixed 1:1 with 2% agarose/1% CHAPS, 3-[(3-cholamidopropyl)dimethylammonio]-1-propanesulfonate, (Boehringer Mannheim, Indianapolis, Ind.), and loaded into wells of a 1% agarose gel. Radiolabeled heparin was then loaded in a slot on the anode side of the gel, and electrophoresed through the peptide-containing wells, towards the cathode. Gels were dried and PG mobility was measured with a Phosphorimager (Molecular Dynamics, Sunnyvale, Calif.) by scanning each protein lane and determining the relative radioactivity content per 88-μm pixel through the length of the lane. Retardation coefficient (R) measurements, binding isotherm curve fittings, and apparent Kd value determinations were calculated as detailed previously (Lee, M. K., and A. D. Lander, Proc. Natl. Acad. Sci. USA, 88:2768-2772, 1991; San Antonio, J. D., et al, Biochemistry, 32:4746-4755, 1993).
Retardation coefficients (R) for the migration of low Mr 1^25I-tyramine-heparin through peptides were determined from ACE gel electrophoretograms, and are plotted against peptide concentration. Smooth curves represent non-linear least-squares fits to the equation R=R∞/{1+(Kd/[peptide])^n}.

Data set [4] has as its system unfractionated heparin (thrombin-induced clot formation). Nature of the data set: Thrombin neutralization assay: clotting time of citrated plasma in the presence of unfractionated heparin. To be noted: UFH 0.5 IU/ml. Type of data set: biochemical, human. On the procedure: It was determined whether heparin-binding peptides of the invention can neutralize unfractionated heparin using the thrombin neutralization assay. The six peptides that were synthesized and used in this Example are: (ARKKAAKA)3VLVLVLVL (SEQ ID NO:5); (ARKKAAKA)(A16)(ARKKAAKA) (SEQ ID NO:30); (ARKKAAKA)4 (SEQ ID NO:31); (AKKARA)6 (SEQ ID NO:32); (ARKKAAKA)3(ARKKCAKA) (SEQ ID NO:33); and cyclized C(ARKKAAKA)4C (SEQ ID NO:34); Citrated plasma was pipetted into a glass tube. Thrombin was added, the tube was manually rotated, and clotting time was determined by observation of clot formation. Normal clotting time is 19-22 seconds.
As a control, to assess the effect of heparin on clot formation, unfractionated heparin was added to the plasma at 0.5 IU anti-thrombin activity/ml and then thrombin was added. Clotting time in the presence of heparin alone was greater than 3 minutes.
To test the effect of peptides, heparin and six peptides at the concentrations indicated in Table 4 were added to the plasma, the mixture was allowed to stand at room temperature for 1 minute, and thrombin was added. The time for the clot to form is indicated. Experiments were performed using plasma from three volunteers—A, B, and C.

For the sequence “ARKKAAKAARKKAAKAARKKAAKAVLVLVLVL [(ARKKAAKA)3VLVLVLVL]”, in data set [1], the “effect on blood pressure and heart rate / toxicity” value is recorded as “no, or minimal, adverse effects on blood pressure or heart rate”. Further, the “effect on blood pressure” value in data set [2] (2 mg per rat, no Lovenox) is “In most rats no drop in blood pressure was seen”. Also, the “duration of transient blood pressure drop” value in data set [2] (in one rat) fell in the range of 1 to 2 min. Moreover, the “effect on platelet aggregation” value in the data set on platelets was “no significant inhibition or enhancement of aggregation”. Besides, the Kd in data set [3] came to 57 ± 23 nM. Also, the “Time for clot formation” value in data set [4] (0.30 μg peptide/0.1 ml, plasma A) amounted to 37.00 ± 2.16 s; in data set [4] (0.30 μg peptide/0.1 ml, plasma B), 40.00 ± 1.63 s; in data set [4] (0.35 μg peptide/0.1 ml, plasma B), 28.33 ± 1.70 s; in data set [4] (0.35 μg peptide/0.1 ml, plasma C), 45.33 ± 2.05 s; in data set [4] (0.40 μg peptide/0.1 ml, plasma A), 20.00 ± 0.82 s; in data set [4] (0.40 μg peptide/0.1 ml, plasma B), 26.67 ± 1.25 s. The “Time for clot formation” value in data set [4] (0.40 μg peptide/0.1 ml, plasma C) was found to be 32.33 ± 2.05 s; in data set [4] (0.50 μg peptide/0.1 ml, plasma A), 17.67 ± 1.25 s; in data set [4] (0.50 μg peptide/0.1 ml, plasma B), 23.67 ± 0.47 s; in data set [4] (0.50 μg peptide/0.1 ml, plasma C) it was 25.67 ± 0.47 s.
